Here are results for one molecule from patent US20200216906A1, “METHODS AND COMPOSITIONS RELATING TO THE DIAGNOSIS AND TREATMENT OF CANCER” (PRESIDENT AND FELLOWS OF HARVARD COLLEGE, priority 2015, published 2020).

The subject of data set [1] is pancreatic cancer cell lines. The data set is described as follows: Kinetic cell growth assay, panel of pancreatic cancer cell lines. In kind it is cell-based, human. Conditions: for IC50: PDAC cell lines. Put shortly:
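Pancreatic cancer cells seeded at 2-4×10^3 (low) or 15-20×10^3 (high density) per well; compounds added at several doses 24 h after plating. Confluence imaged live (Incucyte) hourly for 48-144 h or until DMSO controls reached 100% confluence.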

Another data set has as its system Miapaca2-GFP xenografts. The data set is described as follows: Mouse xenograft, Miapaca2-GFP. Format: in vivo. Conditions: i.p., alternate days for two weeks. The method, then:
To assess the gemcitabine response to Hippo pathway inactivation in tumors a mouse xenograft model of pancreatic carcinoma cells and patient-derived xenograft (PDX) models from a variety of solid tumors including human cancers from non-small cell lung, esophagus, breast, mesothelium, ovary, colon, head and neck, sarcoma, and cholangiocarcinoma were used (FIG. 30). In mouse xenograft studies, two human pancreatic cancer cell lines (Miapac2 and Panc02.13) expressing GFP or YAPS6A were injected into athymic mice. Both parental or GFP expressing cells grew rapidly, producing palpable tumors in 5-10 days. When the tumors were ˜200 mm^3 (as measured using a caliper), mice were randomized into treatment and control groups. The […] received i.p. saline injections on alternate days for two weeks, and the latter received gemcitabine (20 mg/kg in Miapaca2-YAPS6A and 50 mg/Kg in Panc02.13-YAPS6A cohorts).
Tumorigenicity in Nude Mice. All in vivo experiments were performed using 6-week-old to 8-week-old athymic nude mice. Mice were maintained in laminar flow rooms with constant temperature and humidity. Miapaca2 or Panc02.13 cells were inoculated subcutaneously (s.c.) into each flank of the mice. […] Tumor volumes (V) were calculated using the formula: V=AB2/2 (A, axial diameter; B, rotational diameter). […]

Data set [2] deals with Panc02.13-YAPS6A xenografts. As to the kind of experiment: Mouse xenograft, Panc02.13-YAPS6A. In kind it is in vivo. To be noted: 50 mg/Kg, alternate days for two weeks.
Protocol: In mouse xenograft studies, two human pancreatic cancer cell lines (Miapac2 and Panc02.13) expressing GFP or YAPS6A were injected into athymic mice. […] When the tumors were ˜200 mm^3 (as measured using a caliper), mice were randomized into treatment and control groups. The former received i.p. saline injections on alternate days for two weeks, and the latter received gemcitabine (20 mg/kg in Miapaca2-YAPS6A and 50 mg/Kg in Panc02.13-YAPS6A cohorts).
Tumorigenicity in Nude Mice. All in vivo experiments were performed using 6-week-old to 8-week-old athymic nude mice. Mice were maintained in laminar flow rooms with constant temperature and humidity. […] Cells (2×10^6 in suspension) were injected on day 0, and tumor growth was followed every 2 to 3 days by tumor diameter measurements using vernier calipers. Tumor volumes (V) were calculated using the formula: V=AB2/2 (A, axial diameter; B, rotational diameter). When the outgrowths were • 200 mm^3, mice were divided at random into two groups (control and treated, n=3-8). The treated group received gemcitabine injection or saline control on alternate days (MWF) for 2 weeks.
For data set [3] the following is noted: cited from earlier work.
Data set [4] deals with Panc02.13 cells expressing the YAPS6A mutant. The data set is described as follows: 3D spheroid growth assay, Panc02.13 cells expressing YAPS6A. In kind it is cell-based, human. Conditions: YAP activity increased.
In a further data set the target is T1, ABCG2 (Homo sapiens, UniProt Q9UNQ0).
T1 sequence (Q9UNQ0 1-655): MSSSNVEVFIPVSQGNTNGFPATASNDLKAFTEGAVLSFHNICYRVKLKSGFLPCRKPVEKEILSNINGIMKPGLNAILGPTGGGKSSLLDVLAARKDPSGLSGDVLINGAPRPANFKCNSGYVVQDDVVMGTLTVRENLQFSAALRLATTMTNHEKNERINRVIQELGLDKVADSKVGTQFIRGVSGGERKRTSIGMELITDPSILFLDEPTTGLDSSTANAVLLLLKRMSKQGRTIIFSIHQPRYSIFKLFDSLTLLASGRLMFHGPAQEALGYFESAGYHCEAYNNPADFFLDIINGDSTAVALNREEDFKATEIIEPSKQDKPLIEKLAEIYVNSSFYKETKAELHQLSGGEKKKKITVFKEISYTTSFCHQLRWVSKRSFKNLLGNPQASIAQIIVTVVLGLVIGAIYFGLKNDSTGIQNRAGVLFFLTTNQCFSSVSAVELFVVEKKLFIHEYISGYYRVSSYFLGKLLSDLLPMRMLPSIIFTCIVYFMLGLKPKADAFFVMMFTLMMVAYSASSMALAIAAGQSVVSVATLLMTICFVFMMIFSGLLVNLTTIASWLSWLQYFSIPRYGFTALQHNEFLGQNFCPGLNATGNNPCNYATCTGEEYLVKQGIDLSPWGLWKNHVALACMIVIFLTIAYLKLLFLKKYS
Conditions: Cusatis and Sparreboom, 2008; cited from earlier work.

Data set [5] has as its system H2052 mesothelioma cells (LATS2 deletion). As to the kind of experiment: Cell growth of H2052 mesothelioma cells. In kind it is cell-based.

Where a name gives a salt, the structure may show the parent alone. Read-outs that look alike come from different tables or passages of the source.

What is called IC50 is the concentration that inhibits the measured activity by half. For orientation: EC50 means the concentration at which the effect is half-maximal. With `Nc1ccn([C@@H]2O[C@H](CO)[C@@H](O)C2(F)F)c(=O)n1` [Gemcitabine, Gemcitabine hydrochloride], the IC50 was over 1000 nM in data set [1] (Homo sapiens, Pancreatic cancer cell, dense culture, read-out: IC50, resistant in dense culture) and under 100 nM in data set [1] (Homo sapiens, Pancreatic cancer cell, sparse culture, read-out: IC50, sensitive in sparse culture). For the same molecule, the EC50 in data set [1] (Homo sapiens, Pancreatic cancer cell, low crowding conditions (10-25% confluence), all cell lines tested, read-out: EC50 on cell growth) was under 200 nM. In addition, in data set [1] (seven PDAC cell lines, threshold >100 fold difference in EC50), the “Dependence of cellular response on cell crowding” value is given as “dependent on cell crowding”. In addition, the “Density dependence of efficacy” value in data set [1] (seven pancreatic cancer cell lines, sparse and dense conditions) was “density-dependent”. In addition, in the data set with Miapaca2-GFP xenografts, the Growth of xenografts result is on record as “no affect”. For the same molecule, the Tumor volume result in data set [2] is given as “significant regression”. Moreover, the “Patients without objective response to treatment” value in data set [3] (patients treated with gemcitabine) was over 75%. In addition, the Median overall survival entry in data set [3] (standard-of-care therapy, pancreatic cancer) was “six”. In addition, in data set [4], the “Efficacy in inhibiting cell growth when the Hippo pathway was inhibited” value is “increased efficacy in inhibiting cell growth”. For the same molecule, the “Substrate of ABCG2” value on ABCG2 is reported as “substrates of ABCG2”. For the same molecule, the “Sensitivity of mesothelioma cells harboring LATS2 deletion” value in data set [5] was “sensitive”.
